Experiment: Distribution of C^14-labeled preparation within organs and tissues of rats with sarcoma M-1
Type: in vivo
Details: rats with sarcoma M-1, intravenous
Text: Furthermore, the particular distribution of the preparation according to the present invention within organs and tissues should also be noted.
In the case of administration of the preparation according to the present invention labeled with C^14, a higher level of radioactivity in blood is observed than in the case of prospidin labeled with C^14. A higher rate of accumulation of the preparation according to the present invention as compared to prospidin is observed in larynx, windpipe, bronchi, bone marrow, tumor and thyroid gland. The preparation according to the present invention labeled with C^14 is withdrawn from the organism within 24 hours after the intravenous administration mainly with urine, while C^14 --labeled prospidin is retained in the organism for a longer period.

O=C(CCBr)N1CC[N+]2(CC1)CC[N+]1(CCN(C(=O)CCBr)CC1)CC2 [Compound 1, N,N^3 -di-(β-bromopropionyl)-N^1,N^2 -dispirotripiperazinium dichloride]
Coefficient of differential accumulation, Blood (15 min): 1.43
Coefficient of differential accumulation, Bone marrow (15 min): 3.84
Coefficient of differential accumulation, Bronchi (15 min): 3.4
Coefficient of differential accumulation, Hypophysis (15 min): 6.3
Coefficient of differential accumulation, Kidneys (15 min): 10.4
Coefficient of differential accumulation, Larynx (15 min): 4.15
Coefficient of differential accumulation, Liver (15 min): 0.94
Coefficient of differential accumulation, Lungs (15 min): 0.95
Coefficient of differential accumulation, Lymphonodes (15 min): 0.69
Coefficient of differential accumulation, Spleen (15 min): 0.66
Coefficient of differential accumulation, Thymus gland (15 min): 1.67
Coefficient of differential accumulation, Tumor (15 min): 1.76
Coefficient of differential accumulation, Tyroid gland (15 min): 3.5
Coefficient of differential accumulation, Windpipe (15 min): 7.29
Coefficient of differential accumulation, Blood (30 min): 0.91
Coefficient of differential accumulation, Bone marrow (30 min): 6.67
Coefficient of differential accumulation, Bronchi (30 min): 2.83
Coefficient of differential accumulation, Hypophysis (30 min): 6.67
Coefficient of differential accumulation, Kidneys (30 min): 5.4
Coefficient of differential accumulation, Larynx (30 min): 3.43
Coefficient of differential accumulation, Liver (30 min): 0.69
Coefficient of differential accumulation, Lungs (30 min): 0.71
Coefficient of differential accumulation, Lymphonodes (30 min): 0.11
Coefficient of differential accumulation, Spleen (30 min): 0.33
Coefficient of differential accumulation, Thymus gland (30 min): 0.71
Coefficient of differential accumulation, Tumor (30 min): 0.91
Coefficient of differential accumulation, Tyroid gland (30 min): 2.73
Coefficient of differential accumulation, Windpipe (30 min): 4.62
Coefficient of differential accumulation, Blood (60 min): 0.47
Coefficient of differential accumulation, Bone marrow (60 min): 3.78
Coefficient of differential accumulation, Bronchi (60 min): 1.7
Coefficient of differential accumulation, Hypophysis (60 min): 5.13
Coefficient of differential accumulation, Kidneys (60 min): 2.6
Coefficient of differential accumulation, Larynx (60 min): 2.0
Coefficient of differential accumulation, Liver (60 min): 0.76
Coefficient of differential accumulation, Lungs (60 min): 0.86
Coefficient of differential accumulation, Lymphonodes (60 min): 0.69
Coefficient of differential accumulation, Spleen (60 min): 0.32
Coefficient of differential accumulation, Thymus gland (60 min): 0.54
Coefficient of differential accumulation, Tumor (60 min): 0.57
Coefficient of differential accumulation, Tyroid gland (60 min): 1.43
Coefficient of differential accumulation, Windpipe (60 min): 4.64
Coefficient of differential accumulation, Blood (24 hours): 0.05
Coefficient of differential accumulation, Bone marrow (24 hours): 0.76
Coefficient of differential accumulation, Bronchi (24 hours): 0.24
Coefficient of differential accumulation, Hypophysis (24 hours): 4.12
Coefficient of differential accumulation, Kidneys (24 hours): 0.53
Coefficient of differential accumulation, Larynx (24 hours): 0.58
Coefficient of differential accumulation, Liver (24 hours): 0.32
Coefficient of differential accumulation, Lungs (24 hours): 0.26
Coefficient of differential accumulation, Lymphonodes (24 hours): 0.2
Coefficient of differential accumulation, Spleen (24 hours): 0.11
Coefficient of differential accumulation, Thymus gland (24 hours): 0.2
Coefficient of differential accumulation, Tumor (24 hours): 0.26
Coefficient of differential accumulation, Tyroid gland (24 hours): 0.48
Coefficient of differential accumulation, Windpipe (24 hours): 0.6

From US4481201A, “Pharmaceutical composition containing N,N^3 -di-(β-bromopropionyl)-N^1,N^2 -dispirotripiperazinium dichloride” (Vsesojuzny Nauchno-Issledovatelsky Khimoko-Farmasevtichesky …, priority 1981, dated 1984)
